We go through 2 compounds from patent US20080176251A1, “Preparation of high purity phenothiazine N-alkylsulfonates and their use in chemiluminescent assays for the measurement of peroxidase acitivity” (Cyanagen Srl, priority 2007, published 2008).

One assay relates to peroxidase enzyme. The conditions noted are these: phenothiazine present as impurity in the enhancer; according to U.S. Pat. No. 6,432,662; cited from earlier work.
The subject of assay [1] is horseradish peroxidase (HRP-Type VIIA). Nature of the assay: luminol-peroxide-peroxidase chemiluminescent reaction, dependence on enhancer concentration (Example 3). The format is biochemical. The conditions noted are these: 2.50 mM luminol, 2.00 mM perborate, pH 8.6. The protocol:
All measurements reported in Example 3 were carried out with a spectrofluorimeter (Varian Eclipse), Bio/Chemiluminescence Mode (wavelength of emission: 425 nm; emission slit: 20 nm). A series of substrates in 0.1 M, pH 8.6 Tris Buffer is prepared, with the following compositions: • [luminol sodium salt]=2.50 mM • [sodium perborate]=2.00 mM • 3-(phenothiazin-10-yl)propane-1-sulfonate=11.5 μM, 23 μM, 47 μM, 94 μM, 188 μM, 375 μM, 1500 μM e 3000 μM.
To a polymethylmethacrylate fluorimetry cuvette of containing 2 mL of each substrate, is added 10 μL of a solution of 0.5 μg/mL of horseradish peroxidase (HRP-Type VIIA). After mixing the solution with a vortex for a few seconds, measurement of the luminescent signal is initiated. […] The dependence of the chemiluminescent signal (plateau value) for each substrate, is reported graphically in FIG. 1. The luminescent signal grows very rapidly with increasing concentration of the enhancer, 3-(phenothiazin-10-yl)propane-1-sulfonate, until it reaches a maximum value between 0.5 and 1 mM. Further raising the concentration of the enhancer, the chemiluminescent signal begins to decline slowly. At the highest concentration of enhancer, 3.0 mM, the signal is approximately 70% of the maximum value.

Assay [2] shares this test system. Nature of the assay: pH dependence of the enhanced luminol-peroxide-peroxidase chemiluminescent reaction (Example 5). Conditions: 5.0 mM luminol, 4.00 mM perborate, 1.50 mM enhancer; all pH values. The format is biochemical. The protocol: All measurements reported in Example 5 were carried out with a fluorimeter (Varian Eclipse), Bio/Chemiluminescence Mode (wavelength of emission: 425 nm; emission slit: 10 nm; emission filter: open; photomultiplier voltage: medium). A series of substrates in 0.125 M, pH 9.1 Tris Buffer is prepared, with the following composition: • [luminol sodium salt]=5.0 mM. • [sodium perborate]=4.00 mM • 3-(phenothiazin-10-yl)propane-1-sulfonate=1.50 mM
A series of polymethylmethacrylate fluorimetry cuvettes is prepared, each containing of containing 2 mL of substrate. To each cuvette is added a small amount of 5M or 12M HCl, in order to adjust the pH to the following values: 9.02, 8.76, 8.51, 8.41, 8.28, 8.14 and 7.95, and limiting changes in the total volume to less than 5%. Then to each cuvette are added 10 μL of a 0.5 μg/mL solution of horseradish peroxidase (HRP-Type VIIA). After mixing the solution with a vortex for a few seconds, measurement of the luminescent signal is initiated. […] From the results obtained, which are shown in FIG. 3, it is evident that the chemiluminescent signal reaches the maximum value in the range between pH 8.3 and pH 8.6.

In a further assay the test system is peroxidase. The conditions noted are these: results obtained by Fujirebio, U.S. Pat. No. 5,171,668; cited from earlier work.
Assay [3] has as its system horseradish peroxidase (HRP-Type VIIA). Briefly: enhanced luminol-peroxide-peroxidase chemiluminescent reaction, dependence on luminol concentration (Example 4). It is filed as biochemical. The protocol: All measurements reported in Example 4 were carried out with a spectrofluorimeter (Varian Eclipse), Bio/Chemiluminescence Mode (wavelength of emission: 425 nm; emission slit: 20 nm). A series of substrates in 0.1 M, pH 8.6 Tris Buffer is prepared, with the following compositions: • [luminol sodium salt]=0.625 mM, 1.25 mM, 2.50 mM, 5.0 mM, 10 mM. • [sodium perborate]=2.00 mM • 3-(phenothiazin-10-yl)propane-1-sulfonate=0.75 mM
To a polymethylmethacrylate fluorimetry cuvette of containing 2 mL of each substrate, is added 10 μL of a solution of 0.5 μg/mL of horseradish peroxidase (HRP-Type VIIA). After mixing the solution with a vortex for a few seconds, measurement of the luminescent signal is initiated. […] The dependence of the chemiluminescent signal (plateau value) for each substrate, is reported graphically in FIG. 2. The luminescent signal gradually grows very rapidly with increasing concentration of the luminol, until it reaches a maximum value between 0.5 and 1 mM. Further raising the concentration of the enhancer, the chemiluminescent signal begins to decline slowly. At the highest concentration of enhancer, 3.0 mM, the signal is approximately 70% of the maximum value. The luminescent signal grows gradually, and reaches a plateau at the highest concentration of luminol used in the experiment, 10 mM.

In the case of `c1ccc2c(c1)Nc1ccccc1S2` [phenothiazine], the “effect on the peroxidase enzyme” value in the assay with peroxidase enzyme is recorded as “deactivates the peroxidase enzyme”.
Take `O=S(=O)([O-])CCCN1c2ccccc2Sc2ccccc21.[Na+]` [sodium 3-(phenothiazin-10-yl)propane-1-sulfonate]: the “time course of the chemiluminescent signal” value in assay [1] (all enhancer concentrations) was “reaches a plateau within a few minutes, and then remains stable for at least thirty minutes”; in assay [2], “reaches a constant value within a few seconds”; in assay [3] (0.75 mM enhancer, 2.00 mM perborate, luminol 0.625-10 mM, pH 8.6), “reaches a plateau within a few minutes, and then remains stable for at least thirty minutes”. In addition, the “chemiluminescent signal relative to the maximum value” is “approximately 70%” in assay [1] (highest concentration of enhancer, 3.0 mM) and “approximately 70%” in assay [3] (as printed in Example 4: highest concentration of enhancer, 3.0 mM). The “enhancement of luminol chemiluminescence compared with standard enhancer 4-iodophenol” value in the assay on peroxidase is “not significantly better than those observed with a standard enhancer such as 4-iodophenol”. Moreover, the “luminol concentration at which the luminescent signal reaches a plateau” value in assay [3] (0.75 mM enhancer, 2.00 mM perborate, pH 8.6, highest luminol concentration used) is given as 10 mM.
